Data reported in paper PMC10480232 (Scientific Reports, 2023).
Residues, ends and D or L forms follow the SMILES beside them. No end group written: not given here.

How the values were obtained:
SARS-CoV-2 = conditions: 1 h
[1] = test system: SARS-CoV-2 (nCoV/USA_WA1/2020)

CC[C@H](C)[C@H](NC(=O)[C@H](CCCNC(=N)N)NC(=O)[C@H](CCC(=O)O)NC(=O)CN)C(=O)N[C@@H](CCCCN)C(=O)N[C@@H](CC(N)=O)C(=O)N[C@@H](C)C(=O)N[C@@H](CCCCN)C(=O)N[C@@H](CCCCN)C(=O)N[C@@H](CCCCN)C(=O)N[C@H](C(=O)N[C@@H](Cc1c[nH]c2ccccc12)C(=O)N[C@@H](CCC(=O)O)C(=O)N[C@@H](CCCCN)C(=O)N[C@H](C(=O)N[C@@H](CCCCN)C(=O)N[C@@H](CO)C(=O)N[C@@H](Cc1ccccc1)C(=O)NCC(=O)N[C@@H](CCCNC(=N)N)C(=O)N[C@@H](CCCNC(=N)N)C(=O)N[C@H](C(=O)N[C@@H](CCCCN)C(=O)N[C@@H](CC(=O)O)C(=O)N[C@@H](Cc1ccccc1)C(=O)N[C@@H](Cc1ccccc1)C(=O)N[C@@H](CCCNC(=N)N)C(=O)N[C@@H](CCCCN)C(=O)N1CCC[C@H]1C(=O)N[C@@H](CO)C(=O)N1CCC[C@H]1C(=O)N[C@@H](CCC(=O)O)C(=O)N[C@H](C(=O)N[C@@H](CCC(=O)O)C(=O)N1CCC[C@H]1C(=O)O)C(C)C)[C@@H](C)CC)[C@@H](C)CC)C(C)C [Bat Cathelicidin 4c] (H-GERIKNAKKKVWEKIKSFGRRIKDFFRKPSPEVEP-OH; N-terminus and C-terminus assumed)
SARS-CoV-2 inhibition at 50 µM (SARS-CoV-2): > 50%

CC[C@H](C)[C@H](NC(=O)[C@H](CCCNC(=N)N)NC(=O)[C@@H]1CCCN1C(=O)[C@@H](NC(=O)[C@@H]1CCCN1C(=O)[C@H](Cc1ccccc1)NC(=O)[C@H](CO)NC(=O)[C@@H]1CCCN1C(=O)[C@@H]1CCCN1C(=O)[C@H](Cc1ccccc1)NC(=O)[C@H](Cc1c[nH]c2ccccc12)NC(=O)[C@@H]1CCCN1C(=O)[C@@H]1CCCN1C(=O)[C@@H]1CCCN1C(=O)[C@H](Cc1c[nH]c2ccccc12)NC(=O)[C@H](CCC(N)=O)NC(=O)[C@H](Cc1c[nH]c2ccccc12)NC(=O)[C@H](CCCNC(=N)N)NC(=O)[C@H](CC(C)C)NC(=O)[C@@H]1CCCN1C(=O)[C@@H](NC(=O)[C@@H]1CCCN1C(=O)[C@H](Cc1c[nH]c2ccccc12)NC(=O)[C@H](Cc1ccccc1)NC(=O)[C@@H]1CCCN1C(=O)[C@@H](NC(=O)[C@H](CCCNC(=N)N)NC(=O)[C@@H](N)CCCNC(=N)N)[C@@H](C)CC)[C@@H](C)CC)[C@@H](C)CC)C(=O)N[C@@H](CO)C(=O)N[C@@H](CCCNC(=N)N)C(=O)N[C@@H](CCCCN)C(=O)N[C@@H](CCCNC(=N)N)C(=O)O [Beluga 1] (H-RRIPFWPIPLRWQWPPPWFPPSFPIPRISRKR-OH; N-terminus and C-terminus assumed)
SARS-CoV-2 inhibition at 50 µM (SARS-CoV-2): > 50%

CC[C@H](C)[C@H](NC(=O)[C@H](CCCCN)NC(=O)[C@H](CCC(=O)O)NC(=O)[C@H](CCCCN)NC(=O)[C@H](CO)NC(=O)[C@H](CCCCN)NC(=O)[C@H](CCCNC(=N)N)NC(=O)[C@H](Cc1ccccc1)NC(=O)[C@H](Cc1ccccc1)NC(=O)[C@H](CC(=O)O)NC(=O)CNC(=O)[C@H](CC(C)C)NC(=O)[C@@H](N)CC(C)C)C(=O)NCC(=O)N[C@@H](CCCCN)C(=O)N[C@@H](CCC(=O)O)C(=O)N[C@@H](Cc1ccccc1)C(=O)N[C@@H](CCCCN)C(=O)N[C@@H](CCCNC(=N)N)C(=O)N[C@H](C(=O)N[C@H](C(=O)N[C@@H](CCC(N)=O)C(=O)N[C@@H](CCCNC(=N)N)C(=O)N[C@H](C(=O)N[C@@H](CCCCN)C(=O)N[C@@H](CC(=O)O)C(=O)N[C@@H](Cc1ccccc1)C(=O)N[C@@H](CC(C)C)C(=O)N[C@@H](CCCNC(=N)N)C(=O)N[C@@H](CC(N)=O)C(=O)N[C@@H](CC(C)C)C(=O)N[C@H](C(=O)N1CCC[C@H]1C(=O)N[C@@H](CCCNC(=N)N)C(=O)N[C@H](C(=O)N[C@@H](CCC(=O)O)C(=O)N[C@@H](CO)C(=O)O)[C@@H](C)O)C(C)C)[C@@H](C)CC)C(C)C)[C@@H](C)CC [LL-37, reference compound]
hemolytic activity (in words) (human red blood cells): considerable hemolytic activity
Vero TD50 48 h (Vero hACE2 cells): 39.44 µM
HEK293T TD50 (HEK293T cells): 26.61 µM
SARS-CoV-2 inhibition at 50 µM (SARS-CoV-2): > 50%

CC[C@H](C)[C@H](NC(=O)CNC(=O)[C@@H](NC(=O)[C@H](CCCCN)NC(=O)[C@@H](NC(=O)[C@H](CCCCN)NC(=O)[C@H](CCCCN)NC(=O)[C@H](Cc1ccccc1)NC(=O)[C@H](Cc1ccccc1)NC(=O)[C@H](CC(N)=O)NC(=O)[C@H](CCCCN)NC(=O)[C@H](Cc1ccccc1)NC(=O)[C@H](CCCNC(=N)N)NC(=O)[C@@H](N)CCCCN)[C@@H](C)CC)[C@@H](C)O)C(=O)N[C@@H](CCCCN)C(=O)N[C@@H](CCCCN)C(=O)N[C@H](C(=O)N[C@H](C(=O)N[C@@H](CCCCN)C(=O)N[C@@H](CCCCN)C(=O)N[C@H](C(=O)N[C@@H](CCCCN)C(=O)N[C@@H](CCC(=O)O)C(=O)O)[C@@H](C)O)[C@@H](C)CC)C(C)C [NS] (H-KRFKNFFKKIKTGIKKVIKKTKE-OH; N-terminus and C-terminus assumed)
SARS-CoV-2 inhibition at 50 µM (SARS-CoV-2): > 50%

CC[C@H](C)[C@H](NC(=O)[C@H](CO)NC(=O)[C@H](CCCCN)NC(=O)[C@H](CCCNC(=N)N)NC(=O)[C@H](CC(C)C)NC(=O)[C@H](CCCCN)NC(=O)[C@H](CCCCN)NC(=O)[C@@H](NC(=O)[C@H](CCCNC(=N)N)NC(=O)[C@H](CCCCN)NC(=O)[C@@H](N)CCCNC(=N)N)[C@@H](C)CC)C(=O)N[C@@H](CCCCN)C(=O)N[C@@H](CCCCN)C(=O)N[C@@H](CCCNC(=N)N)C(=O)N[C@@H](CC(C)C)C(=O)N[C@@H](CCCCN)C(=O)N[C@@H](CCCCN)C(=O)N[C@@H](CC(C)C)C(=O)N1CCC[C@H]1C(=O)N[C@@H](Cc1ccccc1)C(=O)N[C@@H](CCC(=O)O)C(=O)N[C@H](C(=O)N1CCC[C@H]1C(=O)N[C@@H](CC(C)C)C(=O)N[C@H](C(=O)N[C@@H](Cc1ccccc1)C(=O)N[C@@H](CO)C(=O)N[C@H](C(=O)N1CCC[C@H]1C(=O)N[C@@H](Cc1ccccc1)C(=O)O)[C@@H](C)CC)C(C)C)C(C)C [PC1a] (H-RKRIKKLRKSIKKRLKKLPFEVPLVFSIPF-OH; N-terminus and C-terminus assumed)
SARS-CoV-2 inhibition at 50 µM (SARS-CoV-2): > 50%

CC[C@H](C)[C@H](NC(=O)[C@H](CCCCN)NC(=O)[C@H](CCCCN)NC(=O)[C@H](Cc1ccccc1)NC(=O)[C@H](Cc1ccccc1)NC(=O)[C@H](CCCCN)NC(=O)[C@H](CCCCN)NC(=O)[C@H](Cc1ccccc1)NC(=O)[C@H](CCCNC(=N)N)NC(=O)[C@@H](N)CCCCN)C(=O)N[C@@H](CCCCN)C(=O)N[C@@H](CCCCN)C(=O)N[C@@H](CO)C(=O)N[C@H](C(=O)N[C@@H](CCCCN)C(=O)N[C@@H](CCCCN)C(=O)N[C@@H](CCCNC(=N)N)C(=O)N[C@H](C(=O)N[C@@H](CCCCN)C(=O)N[C@@H](CCCCN)C(=O)N[C@@H](CC(C)C)C(=O)N[C@@H](Cc1ccccc1)C(=O)N[C@@H](CCCCN)C(=O)N[C@@H](CCCCN)C(=O)N1CCC[C@H]1C(=O)N[C@@H](CCCNC(=N)N)C(=O)N[C@H](C(=O)N[C@H](C(=O)N1CCC[C@H]1C(=O)N[C@H](C(=O)N[C@@H](CO)C(=O)N[C@H](C(=O)N1CCC[C@H]1C(=O)N[C@@H](Cc1ccccc1)C(=O)O)[C@@H](C)CC)[C@@H](C)CC)[C@@H](C)CC)C(C)C)C(C)C)C(C)C [TS] (H-KRFKKFFKKIKKSVKKRVKKLFKKPRVIPISIPF-OH; N-terminus and C-terminus assumed)
SARS-CoV-2 inhibition at 50 µM (SARS-CoV-2): > 50%

CC[C@H](C)[C@H](NC(=O)[C@H](CO)NC(=O)CNC(=O)[C@@H](NC(=O)[C@@H](NC(=O)[C@@H]1CCCN1C(=O)[C@@H]1CCCN1C(=O)[C@@H](NC(=O)[C@H](Cc1c[nH]c2ccccc12)NC(=O)[C@H](CCCCN)NC(=O)[C@H](CC(C)C)NC(=O)[C@@H](NC(=O)[C@H](CCCCN)NC(=O)CNC(=O)[C@@H](NC(=O)[C@H](CCCCN)NC(=O)[C@H](CCCCN)NC(=O)[C@H](CC(C)C)NC(=O)[C@H](CCCNC(=N)N)NC(=O)[C@H](CCCCN)NC(=O)[C@H](CCCNC(=N)N)NC(=O)[C@@H](NC(=O)[C@H](CCCCN)NC(=O)[C@H](CCCCN)NC(=O)[C@H](CCCNC(=N)N)NC(=O)[C@H](CC(C)C)NC(=O)[C@H](CCCNC(=N)N)NC(=O)[C@H](CCCNC(=N)N)NC(=O)[C@H](Cc1ccccc1)NC(=O)[C@H](CCCNC(=N)N)NC(=O)CNC(=O)[C@@H](N)C(C)C)[C@@H](C)O)[C@@H](C)CC)C(C)C)[C@@H](C)CC)[C@@H](C)CC)C(C)C)C(=O)O [p5C] (H-VGRFRRLRKKTRKRLKKIGKVLKWIPPIVGSI-OH)
anti-SARS-CoV-2 activity relative to PMAP-36R (in words) [1]: little inhibitory activity

CC[C@H](C)[C@H](NC(=O)[C@@H]1CCCN1C(=O)[C@@H]1CCCN1C(=O)[C@@H](NC(=O)[C@H](Cc1c[nH]c2ccccc12)NC(=O)[C@H](CCCCN)NC(=O)[C@H](CC(C)C)NC(=O)[C@@H](NC(=O)[C@H](CCCCN)NC(=O)CNC(=O)[C@@H](NC(=O)[C@H](CCCCN)NC(=O)[C@H](CCCCN)NC(=O)[C@H](CC(C)C)NC(=O)[C@H](CCCNC(=N)N)NC(=O)[C@H](CCCCN)NC(=O)[C@H](CCCNC(=N)N)NC(=O)[C@@H](NC(=O)[C@H](CCCCN)NC(=O)[C@H](CCCCN)NC(=O)[C@H](CCCNC(=N)N)NC(=O)[C@H](CC(C)C)NC(=O)[C@H](CCCNC(=N)N)NC(=O)[C@H](CCCNC(=N)N)NC(=O)[C@H](Cc1ccccc1)NC(=O)[C@H](CCCNC(=N)N)NC(=O)CNC(=O)[C@@H](N)C(C)C)[C@@H](C)O)[C@@H](C)CC)C(C)C)[C@@H](C)CC)C(=O)O [p9C] (H-VGRFRRLRKKTRKRLKKIGKVLKWIPPI-OH)
anti-SARS-CoV-2 activity relative to PMAP-36R (in words) [1]: none

CC[C@H](C)[C@H](NC(=O)[C@H](CCCCN)NC(=O)[C@H](CCCCN)NC(=O)[C@@H](N)CC(C)C)C(=O)NCC(=O)N[C@@H](CCCCN)C(=O)N[C@H](C(=O)N[C@@H](CC(C)C)C(=O)N[C@@H](CCCCN)C(=O)N[C@@H](Cc1c[nH]c2ccccc12)C(=O)N[C@H](C(=O)N1CCC[C@H]1C(=O)N1CCC[C@H]1C(=O)N[C@H](C(=O)N[C@H](C(=O)NCC(=O)N[C@@H](CO)C(=O)N[C@H](C(=O)N1CCC[C@H]1C(=O)N[C@@H](CC(C)C)C(=O)NCC(=O)N[C@@H](CS)C(=O)NCC(=O)O)[C@@H](C)CC)C(C)C)[C@@H](C)CC)[C@@H](C)CC)C(C)C [p14N] (H-LKKIGKVLKWIPPIVGSIPLGCG-OH)
anti-SARS-CoV-2 activity relative to PMAP-36R (in words) [1]: no inhibition

IKNVELNIENLGERIKNAKKKVWEKIKSFGRRIKDFFRKPSPEVEP [Bat Cathelicidin 4]
SARS-CoV-2 inhibition at 50 µM (SARS-CoV-2): > 50%

RTKRFRKLGNLLQKGGQKIGQKIERIGQKIKDFFSNLVPRQEGA [Pangolin 1]
SARS-CoV-2 inhibition at 50 µM (SARS-CoV-2): > 50%
